Assay [1] in a line: Inhibition of amyloid beta 25-35 fibril formation at 10 uM by using UV-visible measurements and electron microscopy analysis.
The nature of assay [2]: Inhibition of amyloid beta 25-35 fibril formation by using UV-visible measurements and electron microscopy analysis.

The values that follow come from ChEMBL document CHEMBL1155494, “New stilbene dimers against amyloid fibril formation” (Bioorg Med Chem Lett, 2010).

In general, inhibition refers to how much of the control response was suppressed. Regarding `Oc1ccc(/C=C/c2cc(O)cc3c2[C@H](c2cc(O)cc(O)c2)[C@@H](c2ccc(O)cc2)O3)cc1`, the inhibition in assay [1] is 27%. With `COc1cc(/C=C/c2cc(O)cc(O)c2)ccc1O[C@@H]1O[C@H](CO)[C@@H](O)[C@H](O)[C@H]1O`, in assay [1], the inhibition is 28%. As usually defined, the EC50 is the concentration giving half of the maximal effect. Low readings indicate an effect from little substance, high ones a need for much substance. The compound `OC[C@H]1O[C@@H](Oc2cc(/C=C/c3ccc(O)cc3)c3c(c2)O[C@H](c2ccc(O)cc2)[C@H]3c2cc(O)cc(O)c2)[C@H](O)[C@@H](O)[C@@H]1O` gave an EC50 in assay [2] of 0.2 µM. In assay [1], this compound yielded an inhibition of 93%.

In turn, `Oc1ccc(/C=C/c2cc(O)cc(O)c2)cc1` [RESVERATROL] displayed an EC50 in assay [2] of 6 µM. For the same compound, the inhibition in assay [1] amounted to 63%. With `Oc1ccc(C2Oc3ccc(/C=C/c4cc(O)cc5c4[C@H](c4cc(O)cc(O)c4)[C@@H](c4ccc(O)cc4)O5)cc3[C@@H]2c2cc(O)cc3c2[C@H](c2cc(O)cc(O)c2)C(c2ccc(O)cc2)O3)cc1` (some centres not stated), the inhibition in assay [1] was 32%.

In turn, `COc1cc(/C=C/c2ccc(O)cc2)cc(OC)c1` showed an inhibition in assay [1] of 35%.

For the compound `Oc1cc(O)cc(-c2cc3ccc(O)cc3o2)c1`, the inhibition in assay [1] was found to be 9%.

As to `Oc1ccc([C@H]2Oc3cc(O)c([C@@H]4[C@@H](c5cc6c(cc5O)O[C@H](c5ccc(O)cc5)[C@H]6c5cc(O)cc(O)c5)[C@H](c5ccc(O)cc5)O[C@@H]4c4ccc(O)cc4)cc3[C@@H]2c2cc(O)cc(O)c2)cc1`, in assay [1], the inhibition was 17%.

In turn, `Oc1ccc(/C=C/c2cc(O)cc3c2[C@H](c2cc(O)cc(O)c2)[C@@H](c2ccc(O)c(O)c2)O3)cc1` [SCIRPUSIN A] returned an EC50 in assay [2] of 0.7 µM. The same compound returned an inhibition in assay [1] of 80%.

The compound `Oc1cc(O)cc(/C=C/c2ccc(O)cc2O)c1` returned an inhibition in assay [1] of 32%.

Compound `COc1cc(/C=C/c2cc(O)c3c(c2)O[C@H](c2ccc(O)c(OC)c2)[C@H]3c2cc(O)cc(O)c2)ccc1O` yielded an inhibition in assay [1] of 40%. For the compound `COc1cc(/C=C/C(=O)CC(=O)/C=C/c2ccc(O)c(OC)c2)ccc1O` [CURCUMIN], a half-maximal effect in assay [2] (EC50) was put at 10 µM. This compound also showed an inhibition in assay [1] of 45%. In assay [1], `Oc1cc(O)cc(/C=C/c2ccc(O)c(O)c2)c1` returned an inhibition of 25%. For `OC[C@H]1O[C@@H](Oc2ccc(/C=C/c3cc(O)cc(O)c3)cc2)[C@H](O)[C@@H](O)[C@@H]1O`, the inhibition in assay [1] is 11%. As for `OC[C@H]1O[C@@H](Oc2cc(O)cc(/C=C/c3ccc(O)cc3)c2)[C@H](O)[C@@H](O)[C@@H]1O` [PICEID], in assay [2], the half-maximal effective concentration (EC50) is 6 µM. This compound also came in with an inhibition in assay [1] of 62%. For `OC[C@@H]1O[C@H](Oc2ccc(/C=C/c3cc(O)c4c(c3)O[C@H](c3ccc(O[C@H]5O[C@@H](CO)[C@H](O)[C@@H](O)[C@@H]5O)cc3)[C@H]4c3cc(O)cc(O)c3)cc2)[C@@H](O)[C@H](O)[C@H]1O` [12,GNEMENOSIDE A], the EC50 in assay [2] was 10 µM. Besides, the inhibition in assay [1] was determined as 46%.
